Assay results as given in patent US10195144B2, “Methods of treating inflammatory and autoimmune diseases and disorders” (Yale University, priority 2012, dated 2019).

Key:
female NZB/W F1 mice = assay: survival of lupus-prone mice under life-long weekly therapy; format: in vivo
Method: NZB/W F1 mice develop autoimmunity that resembles human lupus nephritis, with development of glomerulonephritis, anemia, and the generation of autoantibodies specific for double-stranded DNA and other self-antigens. NZB/W F1 mice were administered a life-long, single weekly intraperitoneal injection of nanoparticle therapy beginning at 18 weeks of age, before the onset of proteinuria. The single, weekly MPA dosage in nanoparticles was 0.625 mg of MP A per kg animal (mpk). Control mice received only saline buffer.
Animal studies using female NZB/W F1 mice (The Jackson Laboratory, stock #100008) were performed with the approval of the Yale University Institutional Animal Care and Use Committee. Beginning at 18 weeks of age, NZB/W F1 mice were administered a weekly intraperitoneal injection of nanoparticles or mycophenolic acid in buffer for the entirety of their life. An intraperitoneal injection was used, as opposed to intravenous tail vein injection, to prevent long-term tail vein damage from chronic injections. Mice urine was collected by bladder compression, and blood was collected via retroorbital bleed with isoflurane anesthesia. Mouse survival was continued until symptoms of cachexia (more than 5-10% body weight loss), lethargy, or poor condition warranted humane euthanization.

CD4 T cells = assay: CD4 T cell proliferation after particle incubation, wash and anti-CD3/anti-CD28 stimulation; format: cell-based; conditions: brief incubation, wash, 4 days stimulation
Method: CD4 T cells were briefly incubated with particles, washed to remove any unbound particles, and then stimulated for 4 days with anti-CD3 and anti-CD28 antibodies to promote proliferation.

[1] = tested on: NZB/W F1 lupus-prone mice; assay: in vivo comparison of nanolipogels and PLGA particles, survival; conditions: 0.625 mg MPA per kg
Source text: The efficacy of nanolipogels was compared to PLGA using both in vivo and in vitro evaluation. […] Survival time was monitored to determine and compare in vivo efficacy between particles.

In the case of `COc1c(C)c2c(c(O)c1C/C=C(\C)CCC(=O)O)C(=O)OC2` [MPA, mycophenolic acid], the effect on survival (female NZB/W F1 mice; 0.625 mpk soluble in buffer) is reported as “no effect on extending survival”, the effect on survival (female NZB/W F1 mice; 10 mpk (16-fold) in buffer, listed as MPA administered in buffer) is reported as “could not achieve the same therapeutic effect” and the effect on survival (female NZB/W F1 mice; 10 mpk (16-fold) in buffer, listed as free MPA) is reported as “no improvement in survival”. For the same molecule, the “CD4 T cell proliferation and cytokine production” value (CD4 T cells) was “normal proliferation and cytokine production” and the “increase of survival time of treated mice” value [1] was “not”.
